Target: T1, LPHN2 (Homo sapiens, UniProt O95490)
T1 sequence (O95490 26-1459): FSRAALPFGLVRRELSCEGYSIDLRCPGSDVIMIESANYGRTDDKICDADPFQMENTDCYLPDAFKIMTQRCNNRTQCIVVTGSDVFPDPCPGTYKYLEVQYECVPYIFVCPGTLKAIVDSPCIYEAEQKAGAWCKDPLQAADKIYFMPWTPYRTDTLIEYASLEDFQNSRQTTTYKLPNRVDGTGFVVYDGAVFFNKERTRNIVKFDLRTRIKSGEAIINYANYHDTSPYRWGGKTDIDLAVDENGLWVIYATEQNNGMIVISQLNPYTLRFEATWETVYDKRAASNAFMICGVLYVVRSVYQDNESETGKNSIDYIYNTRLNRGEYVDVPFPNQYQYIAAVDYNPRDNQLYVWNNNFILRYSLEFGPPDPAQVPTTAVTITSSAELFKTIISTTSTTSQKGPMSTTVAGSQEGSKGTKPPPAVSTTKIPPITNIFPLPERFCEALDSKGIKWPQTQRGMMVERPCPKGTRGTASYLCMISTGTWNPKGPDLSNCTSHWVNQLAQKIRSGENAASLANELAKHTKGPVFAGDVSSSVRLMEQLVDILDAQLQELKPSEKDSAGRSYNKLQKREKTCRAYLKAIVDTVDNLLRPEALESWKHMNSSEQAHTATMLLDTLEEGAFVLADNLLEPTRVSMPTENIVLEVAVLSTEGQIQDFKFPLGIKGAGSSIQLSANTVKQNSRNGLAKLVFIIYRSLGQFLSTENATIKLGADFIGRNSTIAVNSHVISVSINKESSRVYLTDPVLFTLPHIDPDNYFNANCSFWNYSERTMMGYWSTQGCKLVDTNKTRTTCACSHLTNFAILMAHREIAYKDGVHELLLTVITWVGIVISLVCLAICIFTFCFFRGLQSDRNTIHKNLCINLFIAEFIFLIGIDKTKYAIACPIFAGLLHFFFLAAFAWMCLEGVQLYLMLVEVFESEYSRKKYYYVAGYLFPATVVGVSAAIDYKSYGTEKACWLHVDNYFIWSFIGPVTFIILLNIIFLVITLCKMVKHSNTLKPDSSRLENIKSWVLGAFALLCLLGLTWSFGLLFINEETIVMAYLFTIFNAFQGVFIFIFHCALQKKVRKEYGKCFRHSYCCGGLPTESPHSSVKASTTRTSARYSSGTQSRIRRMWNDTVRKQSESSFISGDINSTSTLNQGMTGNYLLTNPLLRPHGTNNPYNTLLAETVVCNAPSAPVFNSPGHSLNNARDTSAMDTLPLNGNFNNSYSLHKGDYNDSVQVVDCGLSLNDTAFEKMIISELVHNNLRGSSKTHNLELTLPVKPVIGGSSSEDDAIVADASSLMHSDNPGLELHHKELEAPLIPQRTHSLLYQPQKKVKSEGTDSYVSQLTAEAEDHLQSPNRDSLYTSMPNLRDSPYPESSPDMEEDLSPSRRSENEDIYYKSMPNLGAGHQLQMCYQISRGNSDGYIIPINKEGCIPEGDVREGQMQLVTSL
Experiment: BRET G protein
Format: cell-based

- EC50: 39.9 ± 16.2 nM
Structure (SMILES): COc1ccc(OC)c(NC2=NC(=O)CC(C(=O)Nc3cc(C(F)(F)F)ccc3Cl)S2)c1 (stereo not shown) [D11]
